Test [1] concerns A549 (Homo sapiens). Put plainly: Cytotoxicity against human A549 cells after 72 hrs by MTT assay. The following applies: A549, 72 h.
Test [2] deals with SMMC-7721. As to the kind of experiment: Cytotoxicity against human SMMC7721 cells after 72 hrs by MTT assay. Conditions: SMMC-7721, 72 h. For orientation: Formazan colour is commonly taken as a measure of viable cells.

The text below walks through data of ChEMBL document CHEMBL1649386, “Synthesis and in vitro cytotoxic evaluation of some thiazolylbenzimidazole derivatives” (Eur J Med Chem, 2011).

The term IC50 denotes the concentration at which inhibition is half-maximal. High values mean a need for much substance, low ones inhibition by little substance.

Molecules are shown by their SMILES.

Regarding `CCOC(=O)c1sc(-c2nc3ccccc3n2C)nc1C`, the results for the IC50 in test [1] and in test [2] were over 20 µM and 13.9 µM, respectively.
In the case of `CCOC(=O)c1sc(-c2nc3ccccc3n2CC)nc1C`, the figures for the half-maximal inhibitory concentration (IC50) in test [1] and in test [2] were over 20 µM and 9.85 µM, respectively.
As to `CCOC(=O)c1sc(-c2nc3ccccc3n2C(C)C)nc1C`, the half-maximal inhibitory concentration (IC50) in test [1] and in test [2] was over 20 µM in each case.
On to `CCOC(=O)c1sc(-c2nc3ccccc3n2Cc2ccccc2)nc1C`, for which the 50% inhibitory concentration (IC50) in test [1] was over 20 µM; in test [2] it was 2.78 µM.
Turning to `CCOC(=O)c1csc(-c2nc3ccccc3n2C)n1`, the half-inhibitory concentration (IC50) in test [1] was over 20 µM; in test [2] it was 16.5 µM.
As to `CCOC(=O)c1csc(-c2nc3ccccc3n2Cc2ccccc2)n1`, the half-maximal inhibitory concentration (IC50) in test [1] is over 20 µM; in test [2], 13 µM.
In the case of `CCOC(=O)c1csc(-c2nc3ccccc3n2CC)n1`, the IC50 in test [1] and in test [2] was over 20 µM each time.
`CCOC(=O)Cc1csc(-c2nc3ccccc3n2C)n1`: the IC50 in test [1] and in test [2] was over 20 µM in each case.
As for `Cc1nc(-c2nc3ccccc3n2Cc2ccccc2)sc1C(=O)O`, the half-maximal inhibitory concentration (IC50) is over 20 µM in test [1] and 15.3 µM in test [2].
On to `Cc1nc(-c2nc3ccccc3n2Cc2ccccc2)sc1C(=O)NC(C)C`, for which the half-inhibitory concentration (IC50) in test [1] stood at 6.64 µM; in test [2], 6.9 µM.
As to `CCN(CC)CCNC(=O)c1sc(-c2nc3ccccc3n2Cc2ccccc2)nc1C`, the IC50 in test [1] was 2.43 µM; in test [2], 1.14 µM.
As to `Cc1nc(-c2nc3ccccc3n2Cc2ccccc2)sc1C(=O)Nc1ccccc1`, the half-maximal inhibitory concentration (IC50) turned out to be 3.96 µM in test [1] and 3.7 µM in test [2].
In the case of `Cc1nc(-c2nc3ccccc3n2Cc2ccccc2)sc1C(=O)NC1CCCCC1`, the values for the IC50 in test [1] and in test [2] were 5.23 µM and 12.4 µM, respectively.
Take `Cc1nc(-c2nc3ccccc3n2Cc2ccccc2)sc1C(=O)N1CCCCC1`: the half-maximal inhibitory concentration (IC50) in test [1] and in test [2] was over 20 µM throughout.
Take `Cc1nc(-c2nc3ccccc3n2Cc2ccccc2)sc1C(=O)N1CCOCC1`: the IC50 in test [1] and in test [2] was over 20 µM throughout.
Take `Cc1nc(-c2nc3ccccc3n2Cc2ccccc2)sc1C(=O)N1CCN(C)CC1`: the results for the IC50 in test [1] and in test [2] were over 20 µM and 20 µM, respectively.
As for `CC(=O)O[C@H]1C(=O)[C@@]2(C)[C@H]([C@H](OC(=O)c3ccccc3)[C@]3(O)C[C@H](OC(=O)[C@H](O)[C@@H](NC(=O)c4ccccc4)c4ccccc4)C(C)=C1C3(C)C)[C@]1(OC(C)=O)CO[C@@H]1C[C@@H]2O` [PACLITAXEL], the concentration for half-maximal inhibition (IC50) in test [2] is 1.42 µM. In other words, the single-digit micromolar range.
